Test results as given in patent US4032654A, “Water-soluble, liquid concentrates of S-methyl-[(methyl-carbamoyl)oxy]-thioacetimidate and methyl N', N'-dimethyl-N-[(methyl-carbamoyl)oxy]-1-thiooxamimidate” (priority 1975, dated 1977).
Values after ≈ are worked out from the molar mass of the structure shown. Values joined by “and” are separate entries in the source; they are usually repeats but may differ in a detail not shown here. Equal values may be shown once. Read-outs that look alike come from different tables or passages of the source.

Assays:
[1] = Experimental: Solubility of Methomyl and Oxamyl 80:20 Wt. Ratio Acetone:H2 O
Methomyl and oxamyl were dissolved in a solvent system consisting of 80 wt. % acetone and 20 wt. % water separately and in 1:1, 2:1 and 1:2.5 wt. ratios of methomyl and oxamyl. These solutions were equilibrated at -6° C. and were seeded with methomyl and/or oxamyl. They remained at -6° C. until solid-liquid equilibrium was assured. Liquid was removed from each sample at -6° C. and assayed for methomyl and oxamyl. Solids were also removed at -6° C., washed, dried and dissolved in methanol to yield a 10 wt. % solution which was evaluated by TLC for oxamyl and methomyl.

[2] = physchem; settings: for solubility: Oxamyl alone in solvent
Experimental: Methomyl and oxamyl were added to various methanol:water solvent systems ranging from 100 wt. % CH3 OH to 30 wt. % CH3 OH:70 wt. % H2 O. […] The samples were equilibrated at -6° C. in a constant temperature freezer after which they were seeded with methomyl and oxamyl crystals to ensure crystallization of both materials. After crystal-liquid equilibrium was assured, liquid was removed at -6° C. and assayed for methomyl and oxamyl. Solids were also removed at -6° C., washed with hexane and dried. The solids were then dissolved in methanol to yield a 10 wt. % solution. This solution was evaluated by thin layer chromatography (TLC) to ensure the solids consisted of both methomyl and oxamyl.
Solubility of Methomyl and Oxamyl 1:2.5 wt. ratio in CH3 OH:H2 O at -6° C.
Example 3 was repeated by dissolving methomyl and oxamyl in a 1:2.5 weight ratio in the same solvent systems under the same conditions.

[3] = remark: listed apart in the source
Experimental: Methomyl and/or oxamyl were added to a solvent system consisting of 60% cyclohexanone, 10% methanol and 30% water at room temperature at a concentration higher than the solubility limit at -6° C. The methomyl and oxamyl were added together, at weight ratios of 2:1, 1:1 and 1:2.5. The solutions were cooled to -6° C. and seeded with methomyl and/or oxamyl to initiate crystallization. The solutions remained at -6° C. until equilibrium was assured. The supernatant liquid in each sample was analyzed for methomyl and oxamyl by liquid chromatography.

[4] = remark: listed apart in the source
Experimental: Methomyl and Oxamyl Solubility In Cyclohexanone, Cyclohexanol, CH3 OH and H2 O at -6° C.
Methomyl and oxamyl were dissolved separately and in weight ratios of 1:1, 2:1 and 1:2.5 methomyl to oxamyl in a solvent system consisting of 30 wt. % cyclohexanone, 30 wt. % cyclohexanol, 30 wt. % water and 10 wt. % methanol. These solutions were equilibrated at -6° C. and seeded with methomyl and/or oxamyl crystals. The samples of liquid and solids remained at -6° C. until solid-liquid equilibrium was assured. A liquid sample was removed from each at -6° C. and assayed for methomyl and/or oxamyl. Solids were also isolated at -6° C., washed, dried and dissolved in CH3 OH to yield a 10% solution which was analyzed by TLC to ensure both methomyl and oxamyl crystals were present in the solids of the combination sample. All such solids contained both oxamyl and methomyl.
SOLUBILITY OF METHOMYL AND OXAMYL (2:1, 1:1 and 1:2.5 Wt.
RATIOS) IN CYCLOHEXANONE, CYCLOHEXANOL, CH3 OH AND H2 O

[5] = physchem; settings: for solubility: Oxamyl alone in solvent; remark: listed apart in the source
Experimental: Solubility of Methomyl and Oxamyl (2:1 wt. ratio) in CH3 OH/H2 O at -6° C.
Methomyl and oxamyl were added to various methanol:water solvent systems ranging from 100 wt. % CH3 OH to 30 wt. % CH3 OH:70 wt. % H2 O. The methomyl and oxamyl were dissolved in a 2:1 weight ratio of 50 wt. % methomyl to 25 wt. % oxamyl in the solvent systems. The samples were equilibrated at -6° C. in a constant temperature freezer after which they were seeded with methomyl and oxamyl crystals to ensure crystallization of both materials. After crystal-liquid equilibrium was assured, liquid was removed at -6° C. and assayed for methomyl and oxamyl. Solids were also removed at -6° C., washed with hexane and dried. The solids were then dissolved in methanol to yield a 10 wt. % solution. This solution was evaluated by thin layer chromatography (TLC) to ensure the solids consisted of both methomyl and oxamyl.

[6] = physchem; settings: for solubility: Oxamyl alone in solvent; remark: listed apart in the source
Experimental: Methomyl and oxamyl were added to various methanol:water solvent systems ranging from 100% CH3 OH to 40% CH3 OH:60% H2 O. The methomyl and oxamyl were dissolved separately or combined on a 1:1 weight ratio in the solvent systems at room temperature at a concentration exceeding the solubility limit at -6° C. Each sample was seeded with methomyl and/or oxamyl at -6° C. and allowed to crystallize until equilibrium was established. The supernatant liquid of each sample was assayed for methomyl and/or oxamyl by liquid chromatography.

CNC(=O)ON=C(SC)C(=O)N(C)C [Oxamyl, methyl N',N'-dimethyl-N-[(methylcarbamoyl)oxy]-1-thiooxamimidate]
Solubility, both actives in solvent: Oxamyl [1]: 84.6 gms/100 gms solvent and 79.3 gms/100 gms solvent and 82.8 gms/100 gms solvent
Solubility, Oxamyl alone in solvent ([1]; alone, 80:20 wt acetone/H2O, -6° C.): 52.0 gms/100 gms solvent
Solubility, both actives in solvent: Oxamyl [2]: 72.3 gms/100 gms
solubility ([2]; 40/60 ch3oh/h2o, alone, -6° C.): 209 mg/mL (≈ 953 mM)
solubility ([2]; 50/50 ch3oh/h2o, alone, -6° C.): 291 mg/mL (≈ 1330 mM)
solubility ([2]; 60/40 ch3oh/h2o, alone, -6° C.): 396 mg/mL (≈ 1810 mM)
solubility ([2]; 70/30 ch3oh/h2o, alone, -6° C.): 423 mg/mL (≈ 1930 mM)
solubility ([2]; 80/20 ch3oh/h2o, alone, -6° C.): 448 mg/mL (≈ 2040 mM)
solubility ([2]; 90/10 ch3oh/h2o, alone, -6° C.): 404 mg/mL (≈ 1840 mM)
Solubility, Oxamyl alone in solvent ([2]; alone, 100/0 CH3OH/H2O, -6° C.): 33.3 gms/100 gms
Solubility, both actives in solvent: Oxamyl [3]: 84.8 gms/100 gms solvent and 80.1 gms/100 gms solvent and 82.7 gms/100 gms solvent
Solubility, Oxamyl alone in solvent ([3]; alone, 60% cyclohexanone, 10% methanol, 30% water, -6° C.): 48.4 gms/100 gms solvent
Solubility, both actives in solvent: Oxamyl [4]: 83.0 gms/100 gms solvent and 63.7 gms/100 gms solvent and 61.8 gms/100 gms solvent
Solubility, Oxamyl alone in solvent ([4]; alone, 30% cyclohexanone, 30% cyclohexanol, 30% water, 10% methanol, -6° C.): 41.5 gms/100 gms solvent
Solubility, both actives in solvent: Oxamyl [5]: 113 gms/100 gms
solubility ([5]; 40/60 ch3oh/h2o, alone, -6° C.): 209 mg/mL (≈ 953 mM)
solubility ([5]; 50/50 ch3oh/h2o, alone, -6° C.): 290 mg/mL (≈ 1320 mM)
solubility ([5]; 60/40 ch3oh/h2o, alone, -6° C.): 397 mg/mL (≈ 1810 mM)
solubility ([5]; 70/30 ch3oh/h2o, alone, -6° C.): 422 mg/mL (≈ 1920 mM)
solubility ([5]; 80/20 ch3oh/h2o, alone, -6° C.): 447 mg/mL (≈ 2040 mM)
solubility ([5]; 90/10 ch3oh/h2o, alone, -6° C.): 406 mg/mL (≈ 1850 mM)
Solubility, Oxamyl alone in solvent ([5]; alone, 100/0 CH3OH/H2O, -6° C.): 33.3 gms/100 gms
Solubility change when dissolved in combination ([5]; methanol:water solvent systems, 2:1 wt. ratio dissolved initially, -6° C.): increased
Solubility, both actives in solvent: Oxamyl [6]: 80 gms/100 gms
solubility ([6]; 40/60 ch3oh/h2o, alone, -6° C.): 209 mg/mL (≈ 953 mM)
solubility ([6]; 50/50 ch3oh/h2o, alone, -6° C.): 290 mg/mL (≈ 1320 mM)
solubility ([6]; 60/40 ch3oh/h2o, alone, -6° C.): 397 mg/mL (≈ 1810 mM)
solubility ([6]; 70/30 ch3oh/h2o, alone, -6° C.): 422 mg/mL (≈ 1920 mM)
solubility ([6]; 80/20 ch3oh/h2o, alone, -6° C.): 447 mg/mL (≈ 2040 mM)
solubility ([6]; 90/10 ch3oh/h2o, alone, -6° C.): 406 mg/mL (≈ 1850 mM)
Solubility, Oxamyl alone in solvent ([6]; alone, 100/0 CH3OH/H2O, -6° C.): 33.3 gms/100 gms
Solubility when dissolved together in the solvents taught ([6]; summary of Examples 2-7): increases in solubility occur
